In brackets after ≈: the same amount, converted by molar mass. Activity calls are given as the source filed them. The rule behind the calls is not given here.
Tests used:
[1] = test system: Penicillium chrysogenum; experiment: Antimicrobial activity against Penicillium notatum assessed as inhibition of conidia germination after 18 hrs by microdilution method; assay type: functional
[2] = test system: Bacillus subtilis; experiment: Antimicrobial activity against Bacillus subtilis after 18 hrs by microdilution method; assay type: functional
[3] = test system: Mycolicibacterium vaccae; experiment: Antimicrobial activity against Mycobacterium vaccae after 18 hrs by microdilution method; assay type: functional
[4] = test system: Enterococcus faecalis; experiment: Antimicrobial activity against vancomycin-resistant Enterococcus faecalis after 18 hrs by microdilution method; assay type: functional
[5] = test system: Staphylococcus aureus; experiment: Antimicrobial activity against Staphylococcus aureus after 18 hrs by microdilution method; assay type: functional
[6] = test system: Staphylococcus aureus; experiment: Antimicrobial activity against methicillin-resistant Staphylococcus aureus after 18 hrs by microdilution method; assay type: functional
[7] = test system: Bacillus subtilis; experiment: Antimicrobial activity against Bacillus subtilis at 342 uM after 18 hrs by microdilution method; assay type: functional, organism-based
[8] = test system: Staphylococcus aureus; experiment: Antimicrobial activity against Staphylococcus aureus at 342 uM after 18 hrs by microdilution method; assay type: functional, organism-based
[9] = test system: Staphylococcus aureus; experiment: Antimicrobial activity against methicillin-resistant Staphylococcus aureus at 342 uM after 18 hrs by microdilution method; assay type: functional, organism-based
[10] = test system: Mycolicibacterium vaccae; experiment: Antimicrobial activity against Mycobacterium vaccae at 342 uM after 18 hrs by microdilution method; assay type: functional, organism-based
[11] = test system: Enterococcus faecalis; experiment: Antimicrobial activity against vancomycin-resistant Enterococcus faecalis at 342 uM after 18 hrs by microdilution method; assay type: functional, organism-based
[12] = test system: Penicillium chrysogenum; experiment: Antimicrobial activity against Penicillium notatum assessed as inhibition of conidia germination at 342 uM after 18 hrs by microdilution method; assay type: functional, organism-based

| Compound | MIC [1] | MIC [2] | MIC [3] | MIC [4] | other results |
| --- | --- | --- | --- | --- | --- |
| C[C@@H]1[C@H](O)[C@@H](C)/C=C/C=C/C=C/C=C/C=C/C=C/C=C/[C@H](O[C@@H]2O[C@H](C)[C@@H](O)[C@H](N)[C@@H]2O)C[C@@H]2O[C@](O)(C[C@@H](O)C[C@@H](O)[C@H](O)CC[C@@H](O)C[C@@H](O)CC(=O)O[C@H]1C)C[C@H](O)[C@H]2C(=O)O [AMPHOTERICIN B] | 0.4 µg/mL | – | – | – | – |
| O=C(O)c1cn(C2CC2)c2cc(N3CCNCC3)c(F)cc2c1=O [CIPROFLOXACIN] | – | < 0.05 µg/mL | 0.2 µg/mL | 1.56 µg/mL | – |
| O=C(O)C1=C(c2ccccc2)/C(=C/c2ccccc2)C(=O)O1 | 42.4 µM | 5.3 µM | 10.6 µM | 21.2 µM | MIC [5]: 5.3 µM (≈ 1.55 µg/mL); MIC [6]: 5.3 µM (≈ 1.55 µg/mL) |
| O=C1OCC(c2ccccc2)=C1C(O)c1ccccc1 (stereo unspecified) | – | – | – | – | Activity [7]: inactive; Activity [8]: inactive; Activity [9]: inactive; Activity [10]: inactive; Activity [11]: inactive; Activity [12]: inactive |

From ChEMBL document CHEMBL3351437, “Ralfuranone Is Produced by an Alternative Aryl-Substituted γ-Lactone Biosynthetic Route in Ralstonia solanacearum” (2014)
